Test results as given in paper PMC4245125, “Pharmacological and Behavioral Characterization of D-473, an Orally Active Triple Reuptake Inhibitor Targeting Dopamine, Serotonin and Norepinephrine Transporters” (PLoS ONE, 2014).

What was measured:
Beta2 = target: T1, Beta2 (Homo sapiens, UniProt P07550); assay: NIMH PDSP receptor binding, Beta2; conditions: [125I]Iodopindolol, read-out: % Inhibition of Binding at 10 µM D-473
T1 construct: purchased NIMH PDSP

BZP Rat Brain Site = assay: NIMH PDSP receptor binding, BZP Rat Brain Site; conditions: 3H-Flunitrazepam
H1 = target: T2, H1 (Homo sapiens, UniProt P35367); assay: NIMH PDSP receptor binding, H1; conditions: [3H]Pyrilamine, read-out: % Inhibition of Binding at 10 µM D-473
T2 construct: purchased NIMH PDSP
T2 sequence (P35367 whole entry): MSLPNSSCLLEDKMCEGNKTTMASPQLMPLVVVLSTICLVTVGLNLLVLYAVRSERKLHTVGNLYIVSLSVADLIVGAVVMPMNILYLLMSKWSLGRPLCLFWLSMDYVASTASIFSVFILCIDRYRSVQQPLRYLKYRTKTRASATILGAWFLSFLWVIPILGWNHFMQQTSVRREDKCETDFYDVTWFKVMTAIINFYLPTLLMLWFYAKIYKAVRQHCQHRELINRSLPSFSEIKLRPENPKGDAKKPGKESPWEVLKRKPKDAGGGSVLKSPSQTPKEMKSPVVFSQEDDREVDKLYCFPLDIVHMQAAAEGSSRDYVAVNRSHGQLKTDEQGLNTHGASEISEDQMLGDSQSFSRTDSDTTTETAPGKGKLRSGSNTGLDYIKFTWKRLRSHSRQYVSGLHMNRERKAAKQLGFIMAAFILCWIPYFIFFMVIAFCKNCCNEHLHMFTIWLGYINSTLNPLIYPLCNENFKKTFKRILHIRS

M3 = target: T3, M3 (Homo sapiens, UniProt P20309); assay: biochemical; conditions: read-out: % Inhibition of Binding at 10 µM D-473
T3 construct: purchased NIMH PDSP
T3 sequence (P20309 whole entry): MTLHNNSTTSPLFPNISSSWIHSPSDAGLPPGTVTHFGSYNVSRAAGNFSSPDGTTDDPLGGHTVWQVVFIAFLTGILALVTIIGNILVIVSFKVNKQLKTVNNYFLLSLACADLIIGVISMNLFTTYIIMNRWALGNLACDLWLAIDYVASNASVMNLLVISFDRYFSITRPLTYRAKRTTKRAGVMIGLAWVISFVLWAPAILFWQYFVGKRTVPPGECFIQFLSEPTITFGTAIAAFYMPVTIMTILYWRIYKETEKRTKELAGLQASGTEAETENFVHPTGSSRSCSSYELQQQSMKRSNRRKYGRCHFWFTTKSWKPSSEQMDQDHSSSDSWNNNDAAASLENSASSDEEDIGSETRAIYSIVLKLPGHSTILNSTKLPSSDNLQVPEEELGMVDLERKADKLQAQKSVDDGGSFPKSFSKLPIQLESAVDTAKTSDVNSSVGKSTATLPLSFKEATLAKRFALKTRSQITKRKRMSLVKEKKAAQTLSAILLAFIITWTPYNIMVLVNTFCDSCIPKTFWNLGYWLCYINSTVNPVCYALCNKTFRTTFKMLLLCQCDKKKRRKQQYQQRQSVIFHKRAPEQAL

M4 = target: T4, M4 (Homo sapiens, UniProt P08173); assay: biochemical; conditions: read-out: % Inhibition of Binding at 10 µM D-473
T4 construct: purchased NIMH PDSP
T4 sequence (P08173 whole entry): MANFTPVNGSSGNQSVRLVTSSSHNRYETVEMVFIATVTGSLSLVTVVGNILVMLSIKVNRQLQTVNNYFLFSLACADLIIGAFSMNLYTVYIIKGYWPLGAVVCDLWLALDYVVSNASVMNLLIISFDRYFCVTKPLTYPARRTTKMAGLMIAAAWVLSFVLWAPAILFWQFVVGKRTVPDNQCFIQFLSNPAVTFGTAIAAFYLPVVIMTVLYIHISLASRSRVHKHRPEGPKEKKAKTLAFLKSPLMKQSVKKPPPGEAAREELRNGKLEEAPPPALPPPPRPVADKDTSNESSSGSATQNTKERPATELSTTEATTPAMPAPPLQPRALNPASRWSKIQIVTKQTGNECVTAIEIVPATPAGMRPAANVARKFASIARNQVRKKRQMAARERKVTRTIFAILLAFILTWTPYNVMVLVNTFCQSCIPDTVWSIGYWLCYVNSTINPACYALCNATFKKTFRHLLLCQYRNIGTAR

PBR = assay: NIMH PDSP receptor binding, PBR
[1] = Plasma concentration after oral administration in rats; format: in vivo; conditions: rat, male Sprague-Dawley rats, 25 mg/kg PO
Procedure: Sample preparation: Following oral administration of 25 mg/kg of D-473 and D-142 in male Sprague Dawley rats, the blood samples were collected at different time points over a period of 8 h for analysis. Concentrations of D-473 and D-142 in plasma were quantitated using a set of calibration standards prepared in blank matrix that were processed in parallel. Plasma concentration evaluation was carried out by the CRO, Absorption System, PA. Additionally, brain uptake studies of D-473 were carried out at three different time points (2, 4 and 6 h) following oral administration of 25 mg/kg D-473. Concentrations of D-473 in rat brain were quantitated using a set of calibration standards which were prepared in blank brain homogenate matrix on the day of analysis. The standard samples (5, 10, 25, 100, 500, 1000, and 2000 ng/mL) for calibration curve were prepared by spiking 45 µL of blank rat plasma with 5 µL of appropriate working dilution of D-473 in acetonitrile. The bioanalytical sample preparation for brain and plasma analysis followed by quantification of test compounds entailed the addition of 250 µL acetonitrile to every 50 µL of standard and analyte samples to precipitate tissue plasma proteins and tissue macromolecules. These mixtures were then vortexed for 15 min at 1400 rpm. The suspensions were then clarified by centrifugation (18000 g, 10 min at 4°C), and each 150 µL of the resulting supernatant was mixed well with 50 µL 0.1% formic acid in 50/50 (v/v) ACN/water solution for about 10 sec. The mixtures were again centrifuged (18000 g, 10 min at 4°C) before 100 µL of clear supernatant were transferred to auto sampler vials for LC-MS/MS analysis.
The analysis of blood sample was carried out by the CRO Absorption system, PA. Briefly, the analysis was carried out by Waters Acquity UPLC equipped with PE Sciex API4000 mass spectrometer. Reverse phase Waters Acquity BEH Phenyl Column 1.7micron, 2.1×30 mm column was used for analysis. 5 µL of sample solutions were injected with a flow rate 1 mL/min and the samples were eluted with gradient elution using solvent A (10% buffer: 90% water) and solvent B (10% buffer: 90% acetonitrile). Buffer used was 40 mM Ammonium Formate Buffer, pH 3.5. Pharmacokinetic prarameters were estimated by a non-compartmental model using WinNonlin v5.2.1 software.

[2] = tested on: extracellular DA, 5-HT, NE and metabolites in the dorsal lateral striatum (DLS); assay: Microdialysis in dorsal lateral striatum, monoamines and metabolites; format: in vivo, rat; conditions: 10 mg/kg i.p.
Procedure: Adult male Sprague-Dawley rats (Harlan, Indianapolis, IN) weighing between 250 and 350 g were used for all experiments. Rats were housed in a temperature and humidity controlled room with 12 hr light/dark cycles with food and water available ad libitum. Adequate measures were taken to prevent animal pain and discomfort. All animals were treated as approved by the University of Michigan Unit for Laboratory Animal Medicine (ULAM) and in accordance with the National Institute of Health (NIH) Guidelines for the Care and Use of Laboratory Animals.
Rats were anesthetized with using an isoflurane vaporizer that was interfaced to a model 963 Ultra Precise stereotaxic instrument with 0.1 mm resolution (David Kopf Instruments, Tujunga, CA). Concentrically designed microdialysis probes (1 mm dialyzing length) were built in house then implanted bilaterally into the dorsal lateral striatum (DLS) and the medial prefrontal cortex (mPFC) according to the following coordinates from bregma and dura (in mm): AP +1, ML +3.3, DV –5.7 and AP +3, ML −0.5, DV −5, respectively (Paxinos and Watson, 2007). […] 1 mm probes were selected for higher spatial resolution and lower tissue damage compared to larger probes. Probes were secured to the skull by acrylic dental cement and metallic screws. Following surgery, rats were allowed to recover and experiments were run 24 hr after probe implantation. Microdialysis probes were flushed at a flow rate of 2 µl/min with aCSF (composition in mM: CaCl2 1.2; KCl 2.7, NaCl 148 and MgCl2 0.85) for 2 hr using a Chemyx Fusion 400 syringe pump (Chemyx, Stafford, TX). Perfusion flow rate was then reduced to 1 µl/min and samples were collected every 10 min. Baseline values were collected for 50 min and then the drug D-473 was injected (10 mg/kg, i.p.) and samples were collected for an additional 2 h. When experiments were completed, animals were euthanized and then brains were extracted and frozen at −80°C until histology.
Dopamine, norepinephrine (NE), serotonin (5HT), DOPAC, homovanillic acid (HVA) and 5-hydroxyindole acetic acid (5-HIAA) were analyzed using a benozyolation derivitization LC-MS method recently described by our laboratory. Briefly, 10 µl dialysate samples were derivatized by adding 5 µl of 100 mM sodium tetraborate, 5 µl of 2% benzoyl chloride in acetonitrile, and then 5 µl of a stable ^13C benzoylated isotope internal standard mixture was then added to improve quantitation. A Thermo Fisher Accela UHPLC (Waltham, MA) system automatically injected 5 µl of the sample onto a Waters (Milford, MA) HSS T3 reverse phase HPLC column (1 mm X 100 mm, 1.8 µm). Mobile phase A consisted of 10 mM ammonium formate and 0.15% formic acid. Mobile phase B was pure acetonitrile. Analytes were detected by an Thermo Fisher TSQ Quantum Ultra triple quadrupole mass spectrometer operating in multiple reaction monitoring (MRM) mode. The assay limits of detection were (nM in dialysate) for DA, 0.3; NE, 0.2; 5HT, 0.1; HVA, 0.5; DOPAC, 2; and 5HIAA, 5. […] Average standard deviation in above basal levels was 18%.
All neurochemical data were transformed into percent baseline with baseline values all averaging 100%. Statistical analysis was performed by t-test analysis of every point relative to baseline values (i.e. 100%) using Prism 6 (Graphpad Software Inc, La Jolla, CA). P values <0.05 were considered to be statistically significant.

T1 sequence (P07550 whole entry): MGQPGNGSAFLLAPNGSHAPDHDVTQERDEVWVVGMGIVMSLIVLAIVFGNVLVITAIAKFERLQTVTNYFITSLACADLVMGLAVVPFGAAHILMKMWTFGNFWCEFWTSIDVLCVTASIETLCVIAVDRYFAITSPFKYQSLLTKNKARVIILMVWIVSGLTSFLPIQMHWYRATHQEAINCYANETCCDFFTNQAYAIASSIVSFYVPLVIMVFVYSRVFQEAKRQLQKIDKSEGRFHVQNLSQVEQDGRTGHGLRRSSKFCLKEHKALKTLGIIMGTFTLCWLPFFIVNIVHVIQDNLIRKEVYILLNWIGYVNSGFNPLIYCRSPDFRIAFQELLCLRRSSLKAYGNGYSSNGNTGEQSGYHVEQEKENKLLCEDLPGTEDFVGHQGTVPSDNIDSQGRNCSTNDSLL

Compound: COc1ccc(CN[C@@H]2CO[C@H](C(c3ccc(F)cc3)c3ccc(F)cc3)C[C@H]2O)cc1 [Compound D-473, (2S,4R,5R)-2-(bis(4-fluorophenyl)methyl)-5-((4-methoxybenzyl)amino)tetrahydro-2H-pyran-4-ol]
- inhibition at 10 µM (Beta2): -4.4%
- % Inhibition of Binding at 10 µM D-473 (BZP Rat Brain Site): −3%
- inhibition at 10 µM (H1): 2.8%
- inhibition at 10 µM (M3): 6.9%
- inhibition at 10 µM (M4): -16.7%
- % Inhibition of Binding at 10 µM D-473 (PBR): 8.4%
- Cmax ([1]; 3% HPßCD in water, read-out: Average maximum plasma concentration, Cmax): 404 ± 223 ng/mL
- half-life ([1]; read-out: Estimated average half-life (converted)): 6.39 ± 0.106 h
- Elevation of 5-HT over the basal level [2]: > 4 fold
- Increase in DA [2]: 2 fold
- Increase in NE [2]: 2 fold
- Reduction of DOPAC, maximal [2]: 35–40%
- Reduction of HVA, maximal [2]: 20%
- Extracellular 5-HT at the end of two hours, percent baseline ([2]; baseline 100%): 215%
- Extracellular 5-HT, maximal, percent baseline ([2]; baseline 100%): 403%
- Extracellular DA at the end of two hours, percent baseline ([2]; baseline 100%): 129%
- Extracellular DA, maximal, percent baseline ([2]; baseline 100%): 274%
- Extracellular NE at the end of two hours, percent baseline ([2]; baseline 100%): 142%
- Extracellular NE, maximal, percent baseline ([2]; baseline 100%): 238%
